According to US12377175B2, “Trifunctional constructs with tunable pharmacokinetics useful in imaging and anti-tumor therapies” (Cornell University, priority 2016, dated 2025):

Key:
[1] = tested on: LNCaP xenograft tumor-bearing mice; assay: Biodistribution studies of 177Lu-labeled ligands in LNCaP xenograft mice; assay type: in vivo, mouse
Procedure: Inoculation of mice with xenografts: All animal studies were approved by the Institutional Animal Care and Use Committee of Weill Cornell Medicine and were undertaken in accordance with the guidelines set forth by the USPHS Policy on Humane Care and Use of Laboratory Animals. Animals were housed under standard conditions in approved facilities with 12 h light/dark cycles. Food and water was provided ad libitum throughout the course of the studies. Hairless male nu/nu mice were purchased from the Jackson Laboratory. For inoculation in mice, LNCaP cells were suspended at 4×10^7 cells/mL in a 1:1 mixture of PBS:Matrigel (BD Biosciences). Each mouse was injected in the left flank with 0.25 mL of the cell suspension. The mice were imaged when the tumors reached approximately 200-400 mm^3, while biodistributions were conducted when tumors were in the range 100-400 mm^3.
Biodistribution studies of 177Lu-labeled ligands in LNCaP xenograft mice: LNCaP xenograft tumor-bearing mice (5 per time point per compound) were injected intravenously with a bolus injection of 348-851 kBq (9.4-23 μCi) and 37-50 ng ([…]) of each ligand. The mice were sacrificed at 4, 24 and 96 h post injection. A blood sample was removed, and a full biodistribution study was conducted on the following organs (with contents): heart, lungs, liver, small intestine, large intestine, stomach, spleen, pancreas, kidneys, muscle, bone and tumor. Tissues were weighed and counted on a 2470 Wizard^2 Automatic Gamma Counter (Perkin Elmer). Counts were corrected for decay and for activity injected, and tissue uptake was expressed as percent injected dose per gram (% ID/g). Standard error measurement was calculated for each data point.

[2] = tested on: LNCaP xenograft tumor-bearing mice; assay: Dosimetry (dose integrals from time-activity curves of 177Lu-labeled ligands); assay type: in vivo, mouse; conditions: over 96 h
Procedure: Dosimetry: The dosimetry was calculated assuming a linear interpolation between the three time points. The average injected dose per organ was calculated by using the average of the activity and organ weights of the mice at that time point. Intermediate time points at every 4 hours were generated using the linear approximation and all time points were corrected for decay during the time interval between points. These curves were integrated using a trapezoidal approximation and the sum used to determine the residence time.

PSMA on LNCaP cells = target: T1, PSMA on LNCaP cells (Homo sapiens, UniProt Q04609); conditions: cited from earlier work
T1 construct: host or cells: LNCaP
T1 sequence (Q04609 whole entry): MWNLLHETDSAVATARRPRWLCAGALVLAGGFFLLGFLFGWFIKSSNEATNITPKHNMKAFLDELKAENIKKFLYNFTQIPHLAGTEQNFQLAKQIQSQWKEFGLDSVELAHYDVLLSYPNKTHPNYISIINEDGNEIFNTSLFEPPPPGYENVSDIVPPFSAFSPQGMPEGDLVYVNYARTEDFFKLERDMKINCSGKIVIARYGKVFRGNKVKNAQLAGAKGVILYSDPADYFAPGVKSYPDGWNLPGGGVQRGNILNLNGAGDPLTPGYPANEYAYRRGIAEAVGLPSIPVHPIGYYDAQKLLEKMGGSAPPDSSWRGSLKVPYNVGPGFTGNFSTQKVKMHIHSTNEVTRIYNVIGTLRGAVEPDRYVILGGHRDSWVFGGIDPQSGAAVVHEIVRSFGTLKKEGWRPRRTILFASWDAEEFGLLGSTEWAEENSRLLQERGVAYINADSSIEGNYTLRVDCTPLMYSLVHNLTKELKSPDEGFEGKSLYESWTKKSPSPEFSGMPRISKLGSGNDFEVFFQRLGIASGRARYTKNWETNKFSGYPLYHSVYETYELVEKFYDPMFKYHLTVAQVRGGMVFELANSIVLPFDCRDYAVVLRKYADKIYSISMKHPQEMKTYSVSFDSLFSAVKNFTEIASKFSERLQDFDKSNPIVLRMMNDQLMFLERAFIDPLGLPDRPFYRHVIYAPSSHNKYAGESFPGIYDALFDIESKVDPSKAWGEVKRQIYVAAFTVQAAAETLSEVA

| SMILES | blood activity (comparison within the series) ([1]; 4 h p.i.) | tumor uptake ([1]; 4 h p.i.) | kidney uptake ([1]; 24 h p.i.) | tumor-to-kidney ratio ([1]; 24 h p.i.) | tumor uptake ([1]; 96 h p.i.) | dose integral in the tumor relative to 177Lu-PSMA-617 [2] | tumor-to-kidney ratio ([1]; 96 h p.i.) | Kd (PSMA on LNCaP cells) |
| --- | --- | --- | --- | --- | --- | --- | --- | --- |
| O=C([O-])CN1CCN(CC(=O)[O-])CCN(CC(=O)O)C(Cc2ccc(NC(=S)NCCCC[C@H](NC(=O)CCOCCOCCOCCOCCOCCOCCOCCOCCn3cc(-c4cccc(NC(=O)NCCCC[C@H](NC(=O)N[C@@H](CCC(=O)O)C(=O)O)C(=O)O)c4)nn3)C(=O)N[C@@H](CCCCNC(=O)Cc3ccc(I)cc3)C(=O)O)cc2)CN(CC(=O)[O-])CC1.[177Lu+3] (some centres unmarked) [177Lu-RPS-066] | lower blood retention | 18.7±1.1 % ID/g | 6.2±0.8 % ID/g | 1.92±0.30 | 5.9±0.7 % ID/g | at least two times higher | – | – |
| O=C([O-])CN1CCN(CC(=O)[O-])CCN(CC(=O)O)C(Cc2ccc(NC(=S)NCCCC[C@H](NC(=O)CCOCCOCCOCCn3cc(-c4cccc(NC(=O)NCCCC[C@H](NC(=O)N[C@@H](CCC(=O)O)C(=O)O)C(=O)O)c4)nn3)C(=O)N[C@@H](CCCCNC(=O)Cc3ccc(I)cc3)C(=O)O)cc2)CN(CC(=O)[O-])CC1.[177Lu+3] (some centres unmarked) [177Lu-RPS-063] | highest blood activity | 30.0±3.1 % ID/g | 51.8±8.6 % ID/g | – | 12.9±0.5 % ID/g | nearly four times higher | 2.75±0.17 | – |
| O=C(O)CC[C@H](NC(=O)N[C@@H](CCC(=O)N[C@@H](CCCCN(Cc1nccn1CC(=O)O)Cc1nccn1CC(=O)O)C(=O)O)C(=O)O)C(=O)O.[C-]#[O+].[C-]#[O+].[C-]#[O+].[Tc+] [99mTc-MIP-1427, ^99mTc-((7S,12S,16S)-1-(1-(carboxymethyl)-1H-imidazol-2-yl)-2-((1-(carboxymethyl)-1H-imidazol-2-yl)methyl)-9,14-dioxo-2,8,13,15-tetraazaoctadecane-7,12,16,18-tetracarboxylic acid technetiumtricarbonylcomplex)] | – | – | – | – | – | – | – | 0.64 ± 0.46 nM |
| O=C([O-])CN1CCN(CC(=O)[O-])CCN(CC(=O)O)C(Cc2ccc(NC(=S)NCCCC[C@H](NC(=O)CCOCCOCCOCCOCCn3cc(-c4cccc(NC(=O)NCCCC[C@H](NC(=O)N[C@@H](CCC(=O)O)C(=O)O)C(=O)O)c4)nn3)C(=O)N[C@@H](CCCCNC(=O)Cc3ccc(I)cc3)C(=O)O)cc2)CN(CC(=O)[O-])CC1.[177Lu+3] (some centres unmarked) [177Lu-RPS-061] | highest blood activity | – | – | – | – | at least two times higher | 3.64±0.29 | – |
| O=C([O-])CN1CCN(CC(=O)[O-])CCN(CC(=O)O)C(Cc2ccc(NC(=S)NCCCC[C@H](NC(=O)CCOCCOCCOCCOCCOCCOCCn3cc(-c4cccc(NC(=O)NCCCC[C@H](NC(=O)N[C@@H](CCC(=O)O)C(=O)O)C(=O)O)c4)nn3)C(=O)N[C@@H](CCCCNC(=O)Cc3ccc(I)cc3)C(=O)O)cc2)CN(CC(=O)[O-])CC1.[177Lu+3] (some centres unmarked) [177Lu-RPS-069] | lower blood retention | 17.0±2.1 % ID/g | – | – | 9.8±0.8 % ID/g | at least two times higher | – | – |
